Assay results reported in the NIST ThermoML archive (doi:10.1021/acs.jced.9b00726).
“And” between values parts separate entries of the source, which are not always exact repeats. Identical values can stand only once. Numbers after ± are expanded uncertainties.

Assay: activity coefficient (dimensionless); of the first substance listed, at infinite dilution; xn = mol fraction of the nth substance listed
Conditions: 100 kPa, Liquid, inert gas stripping, x1 = 0

SMILES	activity coefficient (278.15 K)	activity coefficient (288.15 K)	activity coefficient (298.15 K)	activity coefficient (308.15 K)	activity coefficient (319.15 K)	activity coefficient (328.15 K)	activity coefficient (318.15 K)	activity coefficient (273.35 K)	activity coefficient (283.15 K)	activity coefficient (293.15 K)	activity coefficient (303.15 K)	activity coefficient (313.15 K)	activity coefficient (323.15 K)	activity coefficient (333.15 K)	activity coefficient (273.17 K)
CCCC(=O)CC [3-hexanone] + O	260 ± 34	340 ± 44	418 ± 43	458 ± 42	515 ± 47	524 ± 48	–	–	–	–	–	–	–	–	–
CCC(=O)C(C)C [2-methyl-3-pentanone] + O	269 ± 58	329 ± 71	391 ± 51	442 ± 58	–	491 ± 64	467 ± 61	–	–	–	–	–	–	–	–
CCC(=O)CC [pentan-3-one] + O	–	92.8 ± 8.3	114 and 112	129 ± 12	–	–	137 and 133	67.9 ± 8.7	86.9 ± 8.7	101 ± 9	118 ± 11	130 ± 12	142 ± 13	148 ± 13	–
CCCC(C)=O [pentan-2-one] + O	67.2 ± 6.7	78.7 ± 7	95.9 ± 8.6	107 ± 9.4	–	129 ± 11	121 ± 11	–	–	–	–	–	–	130 ± 11	61.4 ± 6.1
CC(=O)C(C)C [3-methyl-2-butanone] + O	64.4 ± 8.2	72.9 ± 7.2	91 ± 8.1	102 ± 9.1	–	119 ± 10	112 ± 9.8	–	–	–	–	–	–	–	–
CC(=O)C(C)(C)C [3,3-dimethyl-2-butanone] + O	217 ± 20	272 ± 25	321 ± 29	345 ± 32	–	379 ± 35	370 ± 34	–	–	–	–	–	–	–	–
CC(=O)CC(C)C [4-methylpentan-2-one] + O	239 ± 24	277 and 287	327 ± 30	370 ± 34	–	410 ± 38	405 ± 37	–	–	–	–	–	–	–	–
CCCCC(C)=O [2-hexanone] + O	257 ± 33	331 ± 34	384 ± 35	422 ± 39	–	456 ± 42	471 ± 61	–	–	–	–	–	–	–	–
CCC(C)C(C)=O (stereo unspecified) [3-methyl-2-pentanone] + O	216 ± 47	268 ± 58	296 ± 48	332 ± 43	–	380 ± 49	358 ± 46	–	–	–	–	–	–	–	–
